Reference: ChEMBL document CHEMBL1159389, “Ulongapeptin, a cytotoxic cyclic depsipeptide from a Palauan marine cyanobacterium Lyngbya sp” (J Nat Prod, 2003)

Test system: KB
Experiment: Cytotoxicity against human KB cells
Format: functional, cell-based

C#CCCC[C@@H]1NC(=O)[C@H](C(C)C)NC(=O)[C@@H](Cc2ccccc2)N(C)C(=O)[C@@H](C(C)C)N(C)C(=O)[C@H](C(C)C)NC(=O)[C@H](C(C)C)N(C)C(=O)[C@H](C)OC(=O)[C@H]1C [ULONGAPEPTIN]
IC50: 0.63 µM
